# Data as given in patent publication EP0403366A2, “Cyclomalto-oligosaccharide derivatives and processes for their preparation” (priority 1989, dated 1990).
# What was measured:
# [1] = Apparent stability constant of inclusion complexes; details: in words, complexes with the new derivatives compared with the corresponding cyclomaltoheptaose (CG₇) complexes
# physchem = details: water
# Solubility in water = details: in words, compared with cyclomaltoheptaose (CG₇)
# [2] = Solubility of apolar solutes in aqueous cyclomalto-oligosaccharide solutions (inclusion complexes); assay type: physicochemical
Compound,constantes de stabilité apparente des complexes [1],solubility (physchem),solubilité dans l'eau (Solubility in water),also measured
Oc1ccc2ccccc2c1 [2-naphtol],ne sont pas notablement modifiées,–,–,–
"OC[C@H]1O[C@H](SC[C@H]2O[C@@H]3O[C@H]4[C@H](O)[C@@H](O)[C@@H](O[C@H]5[C@H](O)[C@@H](O)[C@@H](O[C@H]6[C@H](O)[C@@H](O)[C@@H](O[C@H]7[C@H](O)[C@@H](O)[C@@H](O[C@H]8[C@H](O)[C@@H](O)[C@@H](O[C@H]9[C@H](O)[C@@H](O)[C@@H](O[C@H]2[C@H](O)[C@H]3O)O[C@@H]9CO)O[C@@H]8CO)O[C@@H]7CO)O[C@@H]6CO)O[C@@H]5CO)O[C@@H]4CO)[C@H](O)[C@@H](O)[C@@H]1O [Composé 1, 6-S-alpha-D-glucopyranosyl-6-thio-cyclomaltoheptaose]",–,430 mg/mL,améliorée par rapport à celle du CG₇,–
"OC[C@H]1O[C@@H](SC[C@H]2O[C@@H]3O[C@H]4[C@H](O)[C@@H](O)[C@@H](O[C@H]5[C@H](O)[C@@H](O)[C@@H](O[C@H]6[C@H](O)[C@@H](O)[C@@H](O[C@H]7[C@H](O)[C@@H](O)[C@@H](O[C@H]8[C@H](O)[C@@H](O)[C@@H](O[C@H]9[C@H](O)[C@@H](O)[C@@H](O[C@H]2[C@H](O)[C@H]3O)O[C@@H]9CO)O[C@@H]8CO)O[C@@H]7CO)O[C@@H]6CO)O[C@@H]5CO)O[C@@H]4CO)[C@H](O)[C@@H](O)[C@@H]1O [Composé 2, 6-S-bêta-D-glucopyranosyl-6-thio-cyclomaltoheptaose]",–,30 mg/mL,très améliorée par rapport à celle du cyclomaltoheptaose,–
C[C@]12CCC(=O)C=C1CC[C@@H]1[C@@H]2[C@@H](O)C[C@@]2(C)[C@H]1CC[C@]2(O)C(=O)CO [Hydrocortisone],ne sont pas notablement modifiées,–,–,–
"Cc1cccc(N(C)C(=S)Oc2ccc3ccccc3c2)c1 [Tolnaftate, O-2-Naphtyl-méthyl-(3-méthylphényl)-carbomothioate]",–,0.012 mg/mL,–,"Solubilité ([2]; Solution aqueuse à 1,7.10^-2 mol/l de CG7): 840 µg/mL; Solubilité ([2]; Solution aqueuse à 3,10^-2mol/l de composé n°1): 52 690 µg/ml; Solubilité ([2]; Solution aqueuse à 3,10^-2 mol/l de composé n° 2): 37 090 µg/ml"
